As usually defined, the logD is lipophilicity at a set pH, counting ionised and neutral species.

From ChEMBL document CHEMBL3091385, “Radionuclide labeling and evaluation of candidate radioligands for PET imaging of histone deacetylase in the brain” (Bioorg Med Chem Lett, 2013) come the findings set out here.

A short description of series [1]: Lipophilicity, log D of the compound at pH 7.4. The series is classed as physicochemical. The settings on record: buffer.
Series [2] in a line: Drug uptake in iv dosed baboon liver after 90 mins by PET analysis. The class given is ADME, organism-based. The settings on record: papio anubis, in vivo.
Series [3] is described as follows: Protein binding in plasma (unknown origin). The class given is ADME, cell-free. The note with it: unidentified, read-out: PPB (converted).
Series [4] can be described thus: Drug uptake in iv dosed baboon heart after 90 mins by PET analysis. The class given is ADME, organism-based. The note with it: papio anubis, in vivo.
Series [5] in a line: Drug uptake in iv dosed baboon kidney after 90 mins by PET analysis in presence of SAHA. The class given is ADME, organism-based. The settings on record: papio anubis, in vivo.
The test system of series [6] is Brain. The series can be described thus: Drug uptake in iv dosed baboon brain after 90 mins by PET analysis. The series is classed as ADME, organism-based. The note with it: papio anubis, in vivo.
A short description of series [7]: Drug uptake in iv dosed baboon heart after 90 mins by PET analysis in presence of SAHA. The series is classed as ADME, organism-based. The settings on record: papio anubis, in vivo.
The test system of series [8] is Brain. The experiment in a line: Drug uptake in iv dosed baboon whole brain after 90 mins by PET analysis. The note with it: papio anubis, in vivo. The class given is ADME, organism-based.
Series [9] can be described thus: Drug uptake in iv dosed baboon cerebellum after 90 mins by PET analysis. The class given is ADME, organism-based. The note with it: papio anubis, in vivo.
Series [10] can be described thus: Drug uptake in iv dosed baboon liver after 90 mins by PET analysis in presence of SAHA. The settings on record: papio anubis, in vivo. The series is classed as ADME, organism-based.
Series [11] is described as follows: Drug uptake in iv dosed baboon kidney after 90 mins by PET analysis. The series is classed as ADME, organism-based. The note with it: papio anubis, in vivo.
Series [12] in a line: Drug uptake in iv dosed baboon caudate after 90 mins by PET analysis. The class given is ADME, organism-based. The settings on record: papio anubis, in vivo.
Series [13] is described as follows: Drug uptake in iv dosed baboon putamen after 90 mins by PET analysis. The note with it: papio anubis, in vivo. The class given is ADME, organism-based.

Consider `Nc1ccccc1NC(=O)c1ccc(CN[11C](=O)OCc2cccnc2)cc1`, for which the logD in series [1] (read-out: logD) worked out at 1.79.
The compound `O=C(C[18F])NCCCCCC(=O)Nc1ccccc1` displayed a logD in [1] of 1.39.
As to `[11CH3]Oc1ccc(C(=O)CCCCCCC(=O)NO)cc1`, the Drug uptake result (in [2]; in [4]; in series [5]; in the series with Brain [6]; in [7]; in the series with Brain [8]) was “Active” throughout. Moreover, the Drug uptake result in series [9], in [10], in [11], in series [12] and in series [13] was “Active” in each case. For the same compound, in [3], the fraction unbound was 0.085. Also, the logD in series [1] (read-out: logD) was determined as 0.5.
